According to PMC8151276, “An Integrated Approach toward NanoBRET Tracers for Analysis of GPCR Ligand Engagement” (Molecules, 2021):

What was measured:
[1] = molecular target: T1, CXCR3 (Homo sapiens, UniProt P49682); assay: NanoBRET screen HiBiT-CXCR3 in HEK293; type: binding
T1 construct: purchased Promega (in-house HiBiT-GPCR construct library, NanoBRET)
T1 sequence (P49682 1-368): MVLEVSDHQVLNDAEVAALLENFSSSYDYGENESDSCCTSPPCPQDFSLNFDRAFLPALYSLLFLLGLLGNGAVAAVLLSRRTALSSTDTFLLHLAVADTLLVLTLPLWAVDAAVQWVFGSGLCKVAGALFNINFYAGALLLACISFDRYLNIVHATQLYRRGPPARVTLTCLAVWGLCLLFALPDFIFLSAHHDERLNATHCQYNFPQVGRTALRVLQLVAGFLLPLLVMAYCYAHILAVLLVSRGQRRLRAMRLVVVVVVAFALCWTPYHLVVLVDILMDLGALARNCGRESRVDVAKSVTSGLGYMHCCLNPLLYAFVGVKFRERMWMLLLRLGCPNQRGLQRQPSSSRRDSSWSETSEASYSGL
Description: (§1) Each tracer candidate was screened across the entire library of HiBiT-GPCR constructs using NanoBRET as the detection modality. As depicted in Figure 4A, the specificity of interactions was evaluated through decrease in BRET due to competitive displacement of a bound tracer by excess parental compound. Each tracer was analyzed for binding to each HiBiT-GPCR fusion in the absence and in the presence of competing parental compound. Briefly, HEK293 cells were transfected with HiBiT-GPCR constructs diluted into promoterless DNA to reduce expression and maximize translocation to the cell surface. Each tracer candidate was then screened at concentrations of 1 μM and 0.1 μM across cells expressing these fusions. Cells were treated for 1.5 h with tracer either alone or in the presence of 20 μM competing parental compound (i.e., control). BRET was measured upon addition of purified LgBiT and subsequent complementation with HiBiT genetically fused to a GPCR. The specificity of interactions was assessed through a decrease in BRET signal due to competitive displacement of the bound tracer. To further gauge the robustness of these interactions, the fold response over the control (i.e., BRETtracer/BRETcontrol) was calculated. We chose a 1.5-fold response, which translates to ≥7-fold signal over noise as the minimal threshold required to score an interaction as positive. […]. Below we highlight the screening results obtained for our exemplary fluorescent tracers based on Clozapine, Amitriptyline and AZD1283.
(§2) HiBiT-GPCR DNA constructs were diluted in 10 mM Tris pH 8 to a final concentration of 0.01 μg/μL, arrayed in 96-well plates and stored at −20 °C. For transfection, HEK293 cells were suspended in Opti-MEM (without phenol red) supplemented with 2% fetal bovine serum (Seradigm) and 100 units/mL penicillin–streptomycin (Gibco) at a final concentration of 220,000 cells/mL and dispensed into white 96-well plates at 90 μL/well. Subsequent transfections and screens were carried using an Agilent Bravo Automated Liquid Handling Platform. First, the 96-well HiBiT DNA arrays were diluted 25-fold in Opti-MEM (without serum or phenol red) to a final concentration of 0.0004 μg/μL and 20 μL of the diluted DNAs were transferred into new 96-well plates. Next, promoterless carrier DNA (1 μg/μL) was diluted 25-fold (0.04 μg/μL) and then dispensed into the diluted arrays at 20 μL/well. Following brief mixing, Viafect transfection reagent (Promega) diluted 16-fold into Opti-MEM was dispensed into the plates at 40 μL/well. After mixing by pipetting, plates were incubated for 10 min on the pipetting station deck. The DNA-transfection reagent complexes were then added to plates containing cells. To facilitate the screen, 10 μL of DNA-transfection reagent complexes were added in duplicates to the top 4 and bottom 4 rows, resulting in two identical 48-well arrays per plate. Plates with transfected cells were incubated for 18–20 h at 37 °C/5% CO2. A screen of each tracer across the entire library using two different concentrations requires duplicate plates of transfected cells. Depending on the number of tracers being screened, transfections can be scaled up using the same ratios. The next day, for each tracer, four 20× screening solutions in tracer dilution buffer (Promega) were prepared: two duplicates at final concentration of 20 μM and two duplicates at a final concentration of 2 μM. A competing unmodified compound was added to one of each duplicate at a final concentration of 400 μM. The four resulting solutions were diluted 4-fold in Opti-MEM without serum or phenol red to generate 5× solutions (5 µM and 0.5 µM tracer +/− 100 μM competing compound). To screen the library, a BioTek MultiFlo FX liquid dispenser was used to dispense 22.5 µL of tracer solution to the top 4 rows and 22.5 µL tracer + competing compound solution to the 4 bottom rows. Plates were briefly mixed on an orbital shaker and incubated for 1.5 h at room temperature. […]

[2] = molecular target: T2, CCKAR (Homo sapiens, UniProt P32238); assay: NanoBRET screen HiBiT-CCKAR in HEK293; type: binding
T2 construct: purchased Promega (in-house HiBiT-GPCR construct library, NanoBRET)
T2 sequence (P32238 1-428): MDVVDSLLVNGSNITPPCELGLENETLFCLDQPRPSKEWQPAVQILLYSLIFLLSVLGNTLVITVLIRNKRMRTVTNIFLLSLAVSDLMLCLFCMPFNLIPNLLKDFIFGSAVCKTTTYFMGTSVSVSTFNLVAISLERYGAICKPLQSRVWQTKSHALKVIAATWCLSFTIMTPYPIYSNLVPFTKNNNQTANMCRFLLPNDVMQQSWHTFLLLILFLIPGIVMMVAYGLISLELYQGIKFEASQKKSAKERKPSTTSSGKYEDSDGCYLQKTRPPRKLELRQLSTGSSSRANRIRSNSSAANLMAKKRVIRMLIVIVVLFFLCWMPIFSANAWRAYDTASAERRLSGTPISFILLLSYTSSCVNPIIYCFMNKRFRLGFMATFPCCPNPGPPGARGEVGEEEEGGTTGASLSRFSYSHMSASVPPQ
Description: as §1, §2

Cc1cc2c(s1)Nc1ccccc1N=C2N1CCN(CCCNC(=O)CCOCCOCCOCCOCCNC(=O)CCc2ccc3n2[B-](F)(F)[N+]2=C(c4ccc[nH]4)C=CC2=C3)CC1 [Olanzapine-a-2-NB590]
NanoBRET Fold Response ([1]; CXCR3, tracer 0.1μM): 1.05 | NanoBRET Fold Response ([1]; CXCR3, tracer 1μM): 0.89 | NanoBRET Fold Response ([2]; CCKAR, tracer 0.1μM): 1.02 | NanoBRET Fold Response ([2]; CCKAR, tracer 1μM): 1.04

CCCn1c(=O)c2[nH]c(-c3ccc(OCC(=O)NCCNC(=O)CCOCCNC(=O)c4ccc(CNC(=O)CCc5ccc6n5[B-](F)(F)[N+]5=C(c7ccc[nH]7)C=CC5=C6)cc4)cc3)nc2n(CCC)c1=O [XAC-3-NB590]
NanoBRET Fold Response ([1]; CXCR3, tracer 0.1μM): 0.93 | NanoBRET Fold Response ([1]; CXCR3, tracer 1μM): 1.60 | NanoBRET Fold Response ([2]; CCKAR, tracer 0.1μM): 1.01 | NanoBRET Fold Response ([2]; CCKAR, tracer 1μM): 1.01

CN(CCC=C1c2ccccc2CCc2ccccc21)C(=O)CCOCCOCCOCCOCCNC(=O)CCc1ccc2n1[B-](F)(F)[N+]1=C(c3ccc[nH]3)C=CC1=C2 [Amitriptyline-e-2-NB590]
NanoBRET Fold Response ([1]; tracer at 1μM): 1.22 | NanoBRET Fold Response ([2]; tracer at 1μM): 1.00

COc1ccc2c(n1)c(CCNC(C)=O)cn2CCNC(=O)CCc1ccc2n1[B-](F)(F)[N+]1=C(c3ccc[nH]3)C=CC1=C2 [Azamelatonin-1-NB590]
NanoBRET Fold Response ([1]; 0.1μM tracer): 1.19 | NanoBRET Fold Response ([1]; 1μM tracer): 0.93 | NanoBRET Fold Response ([2]; 0.1μM tracer): 1.21 | NanoBRET Fold Response ([2]; 1μM tracer): 0.96
